What was measured:
Saccharomyces cerevisiae = assay: Antifungal activity (optical density), Saccharomyces cerevisiae; assay type: cell-based; settings: read-out: Antifungal activity Saccharomyces cerevisiae, IC50 class, tested at 50, 100, 150 and 200 µM, OD 570 nm, 37 °C, read-out: Antifungal activity Streptomyces cerevisiae
Protocol: (§1) The compounds were tested for their antifungal and nematicidal properties against the fungi Candida albicans and Saccharomyces cerevisiae, and against the nematode Steinernema feltiae.
(§2) Fungal cell densities were determined by measuring the optical density (OD) at 570 nm at 0 h (first measurement immediately after incubation), 4 h, and 24 h after incubation at 37 °C; and using a Universal Microplate Reader, EL800, Biotech Instruments, Inc. Highland Park, Winooski, VT, USA. Compounds were dissolved in 1% DMSO and were tested at final concentrations of 50, 100, 150, and 200 µM. Nutrient Sabouraud Dextrose (SD), and Yeast Peptone Dextrose (YPD) were used as media for C. albicans, and S. cerevisiae, respectively. Ketoconazole was used as the positive control for C. albicans and S. cerevisiae. The growth culture with medium for each organism was used as the negative control. The Solvent 1% DMSO stock was used as a solvent control. All experiments were carried out in triplicate and on three different occasions (n = 9).
(§3) For the three organisms considered (C. albicans, S. cerevisiae and S. feltiae), the inhibitory concentration 50% (IC50) is defined as the concentration that inhibits the viability of the respective organism to a 50% of the viability determined for the negative control.

[1] = tested on: Colo 320/MDR-LRP multidrug resistant overexpressing ABCB1 (MDR1)-LRP; assay: cells; assay type: cell-based, human; settings: Homo sapiens, 24 h, read-out: Colo 320 Cytotoxicity
Protocol: (§4) Cytotoxicity assays in human colonic adenocarcinoma cell lines Colo 205 doxorubicin-sensitive (ATCC-CCL-222) and Colo 320/MDR-LRP multidrug resistant overexpressing ABCB1 (MDR1)-LRP (ATCC-CCL-220.1) were performed following the procedure described by Gajdács et al, 2017, Bioorg Med Chem Lett. 27(4): 797-802. The effects of increasing concentrations of selenium compounds on cell growth were tested in 96-well flat-bottomed microtiter plates. The selectivity of the action towards cancer cells was assessed through the evaluation of cytotoxic activity in a non-tumoral cell line, the MRC-5 human embryonal lung fibroblast cell lines (ATCC CCL-171), as described in Gajdács et al, 2017, Bioorg Med Chem Lett. 27(4): 797-802.
(§5) All cell lines were purchased from LGC Promochem, Teddington, UK. The colonic cells were cultured in RPMI 1640 medium supplemented with 10% heat-inactivated fetal bovine serum, 2 mM L-glutamine, 1 mM Na-pyruvate and 100 mM Hepes. The cell lines were incubated at 37°C, in a 5% CO2, 95% air atmosphere. The semi-adherent human colon cancer cells were detached with Trypsin-Versene (EDTA) solution for 5 min at 37°C. Alternatively, MRC-5 cells was cultured in Eagle's Minimal Essential Medium (EMEM, containing 4.5 g/L glucose) supplemented with a non-essential amino acid mixture, a selection of vitamins and 10% heat-inactivated fetal bovine serum. The cell lines were incubated at 37°C, in a 5% CO2, 95% air atmosphere.
(§6) The compounds were diluted in a volume of 100 µL of medium. The two-fold serial dilutions of selenocompounds were prepared in 100 µL of RPMI 1640, horizontally. The semi-adherent colonic adenocarcinoma cells were treated with Trypsin-Versene (EDTA) solution. They were adjusted to a density of 2×10^4 cells in 100 µL of RPMI 1640 medium, and were added to each well, with the exception of the medium control wells. The final volume of the wells containing selenocompounds and cells was 200 µL.
(§7) The culture plates were incubated at 37°C for 24 h; at the end of the incubation period, 20 µL of MTT (thiazolyl blue tetrazolium bromide, Sigma) solution (from a stock solution of 5 mg/mL) were added to each well. After incubation at 37°C for 4 h, 100 µL of sodium dodecyl sulfate (SDS) (Sigma) solution (10% in 0.01 M HCI) were added to each well and the plates were further incubated at 37°C overnight. Cell growth was determined by measuring the optical density (OD) at 540/630 nm with Multiscan EX ELISA reader (Thermo Labsystems, Cheshire, WA, USA). Inhibition of the cell growth was determined according to the formula below: […] = 100−[(OD sample−OD medium control)/(OD cell control−OD medium control)] × 100 [formula]
(§8) Results are expressed in terms of IC50, defined as the inhibitory dose that reduces the growth of the cells exposed to the tested compounds by 50%. Regarding the selectivity, the selectivity indexes (SI) were calculate, being SI the quotient of the IC50 in non-tumoral cells (MRC-5) and the respective cancer cell (Colo-205 or Colo-320). Compound is considered moderately selective when SI < 6 and ≥ 3; and strongly selective when SI ≥ 6.

Candida albicans = assay: Antifungal activity (optical density), Candida albicans; assay type: cell-based; settings: IC50 class, tested at 50, 100, 150 and 200 µM, OD 570 nm, 37 °C
Protocol: as §1, §2, §3

[2] = tested on: Colo 205 doxorubicin-sensitive; assay: Cytotoxicity assay (MTT) in Colo 205 cells; assay type: cell-based, human; settings: Homo sapiens, COLO 205, 24 h, read-out: Colo 205 Cytotoxicity
Protocol: as §4, §5, §6, §7, §8

Steinernema feltiae = assay: Nematicidal activity (viability count), Steinernema feltiae; assay type: in vivo; settings: IC50 class, tested at 50, 100, 150 and 200 µM, viability at 24 h
Protocol: as §1
The soil nematodes S. feltiae were purchased from Sautter and Stepper GmbH (Ammerbuch, Germany) and stored at 4 °C in the dark. Before each experiment, fresh samples of nematodes were purchased and stored in the fridge upon arrival and used for a maximum of six days. To perform the assay, 200 mg of nematodes was reconstituted in 50 mL of phosphate buffered saline (PBS) (pH = 7.4) to form a homogenous suspension to revive the nematodes. Afterwards, the individual suspensions were allowed to rest at room temperature. The sedimentation was avoided with occasional shaking in moderate light and at room temperature (25 °C) for 30 min. Viability of the nematodes was determined by counting the live and dead nematodes under a light microscope (TR 200, VWR International, Leuven, Belgium) at four-fold magnification. An initial viability value of more than 90 percent was considered necessary to perform the experiments.
Sample solutions were added into the wells of a 96-well plate to achieve at final concentrations of 50,100, 150, and 200 µM. Afterwards, 10 µL of nematode suspension was added to each well and the final volume in each well was adjusted to 100 µL with phosphate buffered saline (PBS) (pH = 7.4). PBS was used in the negative control and ethanol in the positive control. Viability was determined at 0 h and 24 h by counting the live and dead nematodes, whereby 50 µL of lukewarm water (40 °C) were added to each well to stimulate the nematodes for the 24 h reading. Each experiment was performed independently in triplicate and on three different occasions (n = 9).
as §3

SMILES	IC50 (Saccharomyces cerevisiae)	IC50 [1]	IC50 (Candida albicans)	IC50 [2]	IC50 (Steinernema feltiae)
N#CC[Se]C(=O)c1ccc(F)cc1 [Compound 1, Se-(cyanomethyl) 4-fluorobenzoselenoate]	> 100 µM	1 to 10 µM	10 to 50 µM	1 to 10 µM	50 to 100 µM
N#CC[Se]C(=O)c1ccc(Cl)cc1 [Compound 3, Se-(cyanomethyl) 4-chlorobenzoselenoate]	> 100 µM	1 to 10 µM	10 to 50 µM	< 1 µM	10 to 50 µM
N#CCC[Se]C(=O)c1ccc(Cl)cc1 [Compound 4, Se-(cyanoethyl) 4-chlorobenzoselenoate]	50 to 100 µM	1 to 10 µM	> 100 µM	1 to 10 µM	10 to 50 µM
N#CCCC[Se]C(=O)c1ccc(Cl)cc1 [Compound 5, Se-(cyanopropyl) 4-chlorobenzoselenoate]	> 100 µM	1 to 10 µM	10 to 50 µM	1 to 10 µM	1 to 10 µM
N#CC[Se]C(=O)c1ccccc1 [Compound 6, Se-(cyanomethyl) benzoselenoate]	> 100 µM	1 to 10 µM	10 to 50 µM	1 to 10 µM	10 to 50 µM
Cc1ccc(C(=O)[Se]CC#N)cc1 [Compound 7, Se-(cyanomethyl) 4-methylbenzoselenoate]	> 100 µM	1 to 10 µM	10 to 50 µM	1 to 10 µM	1 to 10 µM
Cc1ccc(C(=O)[Se]CCC#N)cc1 [Compound 8, Se-(cyanoethyl) 4-methylbenzoselenoate]	50 to 100 µM	1 to 10 µM	> 100 µM	1 to 10 µM	10 to 50 µM
Cc1ccc(C(=O)[Se]CCCC#N)cc1 [Compound 9, Se-(cyanopropyl) 4-methylbenzoselenoate]	> 100 µM	1 to 10 µM	50 to 100 µM	1 to 10 µM	50 to 100 µM
CC(C)(C)c1ccc(C(=O)[Se]CC#N)cc1 [Compound 10, Se-(cyanomethyl) 4-tert-butylbenzoselenoate]	> 100 µM	1 to 10 µM	10 to 50 µM	1 to 10 µM	> 100 µM
N#CC[Se]C(=O)Cc1ccccc1 [Compound 11, Se-(cyanomethyl) 2-phenylethaneselenoate]	> 100 µM	< 1 µM	10 to 50 µM	< 1 µM	50 to 100 µM
N#CC[Se]C(=O)c1ccc(Cl)cc1Cl [Compound 13, Se-(cyanomethyl) 2,4-dichlorobenzoselenoate]	> 100 µM	1 to 10 µM	10 to 50 µM	1 to 10 µM	10 to 50 µM
N#CCC[Se]C(=O)c1ccc(Cl)cc1Cl [Compound 14, Se-(cyanoethyl) 2,4-dichlorobenzoselenoate]	50 to 100 µM	1 to 10 µM	> 100 µM	1 to 10 µM	10 to 50 µM
N#CC[Se]C(=O)c1ccc(Cl)c(Cl)c1 [Compound 15, Se-(cyanomethyl) 3,4-dichlorobenzoselenoate]	> 100 µM	1 to 10 µM	10 to 50 µM	1 to 10 µM	> 100 µM
CC(=O)Oc1ccccc1C(=O)[Se]CC#N [Compound 17, Se-(cyanomethyl) 2-acetoxybenzoselenoate]	10 to 50 µM	1 to 10 µM	10 to 50 µM	< 1 µM	10 to 50 µM
